Results as given in PMC6264499, “In silico identification and experimental validation of hits active against KPC-2 β-lactamase” (PLoS ONE, 2018).

Key:
[1] = biological target: T1, recombinant KPC-2 (Klebsiella pneumoniae, UniProt Q9F663); assay: KPC-2 inhibition assay, CENTA as reporter substrate; assay type: biochemical
T1 construct: made in house; host or cells: E. coli BL21 (DE3)
Method: (§1) The blaKPC-2 gene was kindly provided by Prof. Sergei Vakulenko (University of Notre Dame du Lac, Indiana, USA) and cloned as already reported and transformed into competent E.coli BL21 (DE3) cells for protein expression. 50 mL of Tryptic Soy Broth (TSB) (50 mg/L kanamycin) were inoculated with fresh colonies and grown at 37°C. 4 mL of the overnight culture was used to inoculate 1.3 L of TSB (50 mg/L kanamycin) grown at 37°C with shaking to an optical density of 0.5 measured at 600 nm. Then expression of recombinant bla gene was induced by adding 1.0 mM IPTG (isopropyl-D-thiogalactopyranoside) and the cells were again allowed to grow at 20°C overnight. Bacteria were harvested by centrifugation at 4000 rpm for 20 minutes. The pelleted cells were resuspended in Tris-HCl 50 mM pH 7.4–7.5. Periplasmatic proteins were extracted as reported in the pET System Manual (TB055 10th Edition Rev. B 0403) and subsequently dialyzed in sodium acetate buffer (50 mM, pH 5.0). The protein was conveniently purified in a single step using a Macro-Prep High S resin and eluted using sodium acetate 50 mM pH 5.0 and a sodium chloride (NaCl) linear gradient from 100 to 500 mM. The purified protein was dialyzed overnight in sodium phosphate buffer 50 mM, pH 7.0 [31, 32].
(§2) The hydrolytic activity of KPC-2 was measured using the β-lactam substrates CENTA (100 uM, KM 70 uM) or nitrocefin (114 uM, KM 36 μM) in reaction buffer consisting of 50 mM of PB at pH 7.0 at 25°C with 0.01% v/v Triton X-100 to avoid compound aggregation and promiscuous inhibition.[33] Reactions were monitored using a Beckmann DU640 spectrophotometer at […] for CENTA and 480 nm wavelength for nitrocefin [34]. The test compounds were synthesized as described below or purchased from Enamine, TimTec, Vitas-M, ChemBridge, Otava, Life Chemicals or Apollo Scientific and assayed without further purification. Compounds were dissolved in dimethyl sulfoxide (DMSO) to a concentration of 25 mM and stored at -20°C. The highest concentration at which the compounds were tested was up to 1 mM (depending on their solubility). All experiments were performed in duplicate and the error never exceeded 5%. The reaction was typically initiated by adding KPC-2 to the reaction buffer last. To control for incubation effects, protein was added to the reaction buffer first, and the reaction was initiated by the addition of reporter substrate after 10 minutes of enzyme-compound incubation.
Fig 4 Inhibitory activity of compounds selected from virtual screening. ^[a]Assays were performed in duplicate (errors were less than 5%) with CENTA as reporter substrate (100 μM, km 70 μM). Kinetic were monitored at 25° by following the absorbance variation at λ = 405 nm. ^[b] If no IC50 has been measured, percent inhibition at the highest tested concentration is given in parentheses. For example, > 0.50 (26%) implies that the highest concentration tested was 0.50 mM; at this concentration, the enzyme was inhibited by 26%. Therefore, IC50> 0.50 mM. When % Inhibition was below 10% No Inibition (NI) is reported. ^[c]Assays were run after 10’ incubation of the inhibitor with KPC-2. Reaction was started by the addition of CENTA. […] 0 (11) | 32a: IC50 mM ^[a,b]: 1.24
Competitive inhibition mechanism and the Ki for compound 9a was determined by Lineweaver–Burk (LB) and Dixon plots.

[2] = tested on: Kpn 53A8; assay: MIC of meropenem, alone or 1:1 with compounds, KPC-2 clinical strain; assay type: cell-based, K. pneumoniae; conditions: strain Kpn 53A8
Method: The antimicrobial activity of the best hits 9a and 11a and their derivatives was studied in bacterial cell cultures to investigate their ability to cross the outer membrane reaching the periplasmic space, where KPC-2 is secreted and confined in Gram negative bacteria. Compounds were tested for synergy with the β-lactam antibiotic meropenem against four K. pneumoniae clinical strains, isolated from different patients at the Hospital Universitario Son Espases, Palma de Mallorca, Spain. […] The three additional strains harbored the blaKPC-2 gene and were resistant to meropenem (Table 2). […] However, against strain Kpn 53A8 the MIC value was lowered by a factor of two when meropenem was combined with compounds 32a, 1b, 2b, 5b and 6b while in combination with compound 11a the MIC value was reduced by 4 fold.

[3] = biological target: T1, recombinant KPC-2; assay: KPC-2 inhibition assay, nitrocefin as reporter substrate; assay type: biochemical; conditions: for IC50: nitrocefin 114.28 μM (Km 36 μM), 25°, 485 nm
Method: as §1, §2
Kinetic were monitored at 25° by following the absorbance variation at λ = 485 nm. ^[b] If no IC50 has been measured, percent inhibition at the highest tested concentration is given in parentheses. […] When % Inhibition was below 10% No Inhibition (NI) is reported. TEXT PRINTED IN THE PICTURE: 11a: IC50 mM [a,b]: 0.036 | 1b: IC50 mM [a,b]: > 0.2 (25) | 2b: IC50 mM [a,b]: >0.6 (23) | 3b: IC50 mM [a,b]: Not tested not soluble | 4b: IC50 mM [a,b]: > 0.2 (16) | 5b: IC50 mM [a,b]: > 0.2 (13) | 6b: IC50 mM [a,b]: NI at 0.2 | 7b: IC50 mM [a,b]: >1.0 (30) | 8b: IC50 mM [a,b]: > 1.0 (37) | 9b: IC50 mM [a,b]: NI at 0.5 | 10b: IC50 mM [a,b]: NI at 0.5 | 11b: IC50 mM [a,b]: > 1.0 (37) | 12b: IC50 mM [a,b]: NI at 0.5 | 13b: IC50 mM [a,b]: NI at 0.5 | 14b: IC50 mM [a,b]: >500 (20) DOUBTS OF THE COPYIST ABOUT THIS PICTURE: column head: raised note printed very small, read as [a,b]

[4] = CENTA 100 μM, after 10' incubation of the inhibitor with KPC-2, read-out: IC50
[5] = read-out: percent inhibition at the highest tested concentration
[6] = CENTA 100 μM (km 70 μM), 25°, 405 nm, no pre-incubation, read-out: IC50

T1 sequence (Q9F663 25-293, looked up): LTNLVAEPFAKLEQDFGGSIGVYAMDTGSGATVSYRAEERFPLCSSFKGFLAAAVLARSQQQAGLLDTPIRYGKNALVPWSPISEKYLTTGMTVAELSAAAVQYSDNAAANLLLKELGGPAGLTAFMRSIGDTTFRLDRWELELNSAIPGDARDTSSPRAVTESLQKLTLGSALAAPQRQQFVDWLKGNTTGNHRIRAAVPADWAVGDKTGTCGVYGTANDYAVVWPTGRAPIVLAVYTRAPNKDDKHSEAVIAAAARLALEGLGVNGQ

With `Brc1cc2c(cc1-c1nnn[nH]1)OCO2` [12a] the IC50 [1, 4] was 700 µM.
For `O=S(=O)(Nc1cccc(-c2nnn[nH]2)c1)c1ccc(Cl)cc1` [6b, N-(3-(1H-tetrazol-5-yl)phenyl)-4-chlorobenzenesulfonamide], the “fold reduction of meropenem MIC in combination with compound” value (“fold reduction of meropenem MIC” for short) [2] was “two” and the inhibition at 200 µM [3, 5] was less than 10%.
With `Cn1c(=O)c2n[nH]c(=O)nc2n(C)c1=O` [14a] the IC50 [1] was greater than 1000 µM and the inhibition at 1000 µM [1, 5] was 26%.
For `CC(C)S(=O)(=O)Nc1ccc2c(c1)C(=O)N(C)CCO2` [15a], the IC50 [1, 6] was greater than 660 µM and the inhibition at 660 µM [1, 5] was 38%.
`Cn1cc(-c2cc(C(=O)O)no2)cn1` [4a] showed an IC50 [1, 6] greater than 250 µM and an inhibition at 250 µM [1, 5] of 12%.
For `O=S(=O)(Nc1cccc(-c2nnn[nH]2)c1)c1cccc(F)c1` [1b, N-(3-(1H-tetrazol-5-yl)phenyl)-3-fluorobenzenesulfonamide], the “fold reduction of meropenem MIC” value [2] was “two”, the IC50 [3] was greater than 200 µM and the inhibition at 200 µM [3, 5] was 25%.
`O=C(O)Cc1c[nH]c2ncnn2c1=O` [30a] gave an inhibition at 1000 µM [1, 5] of less than 10%.
Work on `O=S(=O)(Nc1cccc(-c2nnn[nH]2)c1)c1ccc(C(F)(F)F)cc1` [14b] yielded an IC50 [3] greater than 500 µM.
In the case of `Cc1n[nH]c(C)c1/C=C/c1cc(C(=O)O)ncn1` [24a], the IC50 [1, 6] is reported as greater than 100 µM and the inhibition at 100 µM [1, 5] is reported as 41%.
`Cc1nn(CC(=O)O)c2nccc(-c3cnn(C)c3)c12` [26a] showed an IC50 [1, 6] greater than 830 µM and an inhibition at 830 µM [1, 5] of 18%.
Work on `O=S(=O)(/C=C/c1cccc(Br)c1)Nc1cccc(-c2nnn[nH]2)c1` [7b] yielded an IC50 [3] greater than 1000 µM and an inhibition at 1000 µM [3, 5] of 30%.
Work on `O=C(Nc1cccc(-c2nn[nH]n2)c1)c1cccs1` [10a] yielded an IC50 [1, 4] of 70 µM.
`CCS(=O)(=O)Nc1cc(-c2ccncc2)n[nH]1` [22a] showed an inhibition at 1000 µM [1, 5] of less than 10%.
For `CN(Cc1cnccn1)Cc1cccc(C(=O)O)n1` [23a], the IC50 [1, 4] was greater than 1000 µM and the inhibition at 1000 µM [1, 5] was 26%.
Compound `O=c1c2ccc(S(=O)(=O)Nc3cccc(-c4nnn[nH]4)c3)cc2nc2n1CCCCC2` [12b] has an inhibition at 500 µM [3, 5] of less than 10%.
In the case of `COc1cc(OC)c2cc(C(=O)O)nnc2c1` [28a], the IC50 [1, 6] is reported as greater than 500 µM and the inhibition at 500 µM [1, 5] is reported as 14%.
In the case of `CCOc1cc(C(=O)O)nc2ccc(OC)cc12` [20a], the IC50 [1, 4] is reported as greater than 500 µM and the inhibition at 500 µM [1, 5] is reported as 28%.
In the case of `CCOc1ccc(NS(C)(=O)=O)cc1` [7a], the IC50 [1, 6] is reported as greater than 1000 µM and the inhibition at 1000 µM [1, 5] is reported as 12%.
For `O=C(Nc1cccc(-c2nnn[nH]2)c1)c1cccc(F)c1` [11a, N-(3-(1H-tetrazol-5-yl)phenyl)-3-fluorobenzamide], the IC50 [1, 4] was 36 µM, the Ki ([1]; Cheng-Prusoff equation from IC50, assuming competitive inhibition, read-out: Ki (calculated)) was 14.8 µM and the “ligand efficiency (LE)” value ([1]; vs KPC-2) was 0.28 kcal/mol/non-hydrogen atom. The mode of inhibition ([1]; vs KPC-2) was “competitive inhibitors” and the “fold reduction of meropenem MIC” value [2] was 4 fold.
Compound `COc1ccc(-c2cn[nH]c2C(=O)O)c(OC)c1` [2a] has an IC50 [1, 6] greater than 500 µM and an inhibition at 500 µM [1, 5] of 38%.
`O=S(=O)(Nc1cccc(-c2nnn[nH]2)c1)c1cccc2cccnc12` [5b, N-(3-(1H-tetrazol-5-yl)phenyl)quinoline-8-sulfonamide] was tested, and the “fold reduction of meropenem MIC” value [2] was “two”, the IC50 [3] was greater than 200 µM and the inhibition at 200 µM [3, 5] was 13%.
For `COc1ccc2nc(N)sc2c1` [32a], the “fold less active than 9a” value ([1]; IC50 vs KPC-2 relative to compound 9a) was 8 fold and the “fold reduction of meropenem MIC” value [2] was “two”.
